Reference: PMC5248581 (PeerJ, 2017)

What was measured:
MRGPRX2 (human sequence) = conditions: ref McNeil et al., 2015; cited from earlier work
Text: MRGPRX2 has been recently described as a promiscuous receptor for cationic polymers and drugs that produce direct mast cell degranulation ([McNeil et al., 2015]). […] The contractile effect of MK on the human umbilical vein and ...

male Sprague-Dawley rats [1] = test system: male Sprague-Dawley rats
Description: All surgical and experimental procedures were reviewed and approved by the Animal Care and Handling Committee of Laval University, in accordance with the Canadian Council on Animal Care (file no. 2012-223). Experiments were performed on male Sprague-Dawley rats (300–375 g) purchased from Charles River Laboratories (St-Constant, Qc, Canada). Only animals of the male gender have been studied to be consistent with related and recently published data ([Jean et al., 2016a]). The rats were housed in a temperature-controlled room (22 ± 1 °C) on a 12 h/12 h light-dark cycle (lights on at 0600) and had free access to normal chow diet and tap water. They were allowed to acclimate to their environmental conditions for one week prior to being studied. At the end of the acclimation period, the rats were anesthetised with sodium pentobarbital (50 mg kg^−1, i.p., supplemented as required) and had one catheter implanted into the right jugular vein (for intravenous ( i.v.) injection) and one into the left femoral artery (for direct and continuous measurement of blood pressure and heart rate as previously described, [Jean et al., 2016a]). In some experiments, a miniaturized pulsed Doppler flow probe ([Haywood et al., 1981]) was implanted around the distal abdominal aorta (below the level of the ileocaecal artery) through a midline abdominal incision to monitor changes in hindquarter hemodynamic, according to the method previously developed by [Gardiner & Bennett (1988)] and as previously described ([Bachelard et al., 1992]; [Jean et al., 2016a]). Experiments started at least 30 min following the end of surgery in anesthetised rats.
Baseline heart rate and phasic and mean arterial blood pressure were recorded over a period of 15 min in anesthetized rats. […] Peptides were dissolved in isotonic saline (0.9% NaCl) containing 0.1% BSA to prevent the adsorption of peptide to the glassware and plastic surfaces. All i.v. injections were given as 100 µl boluses which were washed in with a further 100 µl of saline (the dead space of the catheter). Only one peptide was tested per group of rats and each injection started with saline-BSA 0.1% followed by the lowest dose of peptide. The next dose was administered once all recorded cardiovascular parameters had returned to baseline after the previous injection (usually 2–10 min). At the end of the experiments each animal was euthanized with an overdose of sodium pentobarbital (240 mg/kg, i.v.).
In these experiments, enalaprilat was intravenously administered as bolus (0.1 mg/kg, 0.1 ml) following a 10 min period of baseline measurements of heart rate and blood pressure. Fifteen minutes later, a dose–response curve to MK was obtained, as described above. […] In these experiments, icatibant was intravenously administered as bolus (25 µg/kg, 0.1 ml) 15 min before the i.v. injection of increasing doses of MK, as above. […] In these experiments, pyrilamine was intravenously administered as bolus (5 mg/kg, 0.1 ml) 15 min before the i.v. injection of increasing doses of MK, as above.
(§1) Results are presented as means ± s.e.m. Radioligand binding data were fitted by nonlinear regression to a one-site competition equation using a least-square method (Prism 5.0; GraphPad Software Inc., San Diego, CA, USA) and IC50 values calculated from this procedure. The same computer program was used to draw concentration-effect curves (least square fitting of sigmoidal dose–response equation with variable slope) and to derive contractile EC50 values. Data describing baseline values of heart rate and mean arterial blood pressure and hypotensive responses to peptides in anesthetized rats were assessed by using one-way analysis of variance (ANOVA) followed by the Dunnett’s test (repeated comparison with a common control).

male Sprague-Dawley rats [2] = experiment: Acute hindquarter hemodynamic effects in anesthetized rats; assay type: in vivo, rat; conditions: icatibant 25 µg/kg i.v., 15 min before
Description: Before each experiment, a 30-min stabilization period was allowed, during which continuous recording of heart rate, phasic and mean blood pressure and phasic and mean Doppler shift signals from the hindquarter probe were made in anesthetized rats, using the Biopac data acquisition and analysis system previously described ([Jean et al., 2016a]). Then, a first group of rats (n = 8) received successive i.v. injections of peptide vehicle (saline-BSA 0.1%), BK (6.4 µg/kg), and MK (1.6 µg/kg). […] Further experiments were made in a second group of rats (n = 6) pretreated with the B2R antagonist, icatibant. […] At the end of the experiments the rats were euthanized with an overdose of anesthetic (pentobarbital 240 mg/kg, i.v.).
Results are presented as means ± s.e.m.

[3] = target: T1, human isolated umbilical vein (BK B2R; histamine H1R) (Homo sapiens, UniProt P30411); conditions: antagonist 1 µM, 30 min before MK
T1 sequence (P30411 1-391): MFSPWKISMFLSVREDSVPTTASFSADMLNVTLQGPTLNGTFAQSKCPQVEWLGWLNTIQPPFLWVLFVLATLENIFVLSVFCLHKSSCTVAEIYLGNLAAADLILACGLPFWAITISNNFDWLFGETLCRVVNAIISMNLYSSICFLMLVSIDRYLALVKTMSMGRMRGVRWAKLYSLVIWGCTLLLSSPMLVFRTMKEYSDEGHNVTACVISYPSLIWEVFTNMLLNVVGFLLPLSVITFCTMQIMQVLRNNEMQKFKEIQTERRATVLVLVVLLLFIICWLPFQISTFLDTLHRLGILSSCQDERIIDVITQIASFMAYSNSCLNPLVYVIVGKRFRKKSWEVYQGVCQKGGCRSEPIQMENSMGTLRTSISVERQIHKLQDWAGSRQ
Text: The institutional research ethics board (CHU de Québec) approved the anonymous use of human umbilical cord segments obtained after elective cesarean section deliveries (file number: 2012-323). Informed written consent was obtained from mothers.
as §1, with “control). The effects of drugs on the hypotensive responses to each dose of MK were assessed by using ANOVA followed by the Dunnett’s test.” for “control).”

## D-Arg-[Hyp^3, Thi^5, D-Tic^7, Oic^8] bradykinin [icatibant]
MRGPRX2 (human sequence)
  MRGPRX2-activating concentration over B2R-antagonizing concentration: 5 to 6 orders of magnitude
Male Sprague-Dawley rats [1]; 15 min after i.v., enalaprilat 0.1 mg/kg n=6, icatibant 25 µg/kg n=6, pyrilamine 5 mg/kg n=16, means ± s.e.m., control 96.5 ± 2.5
  Basal mean arterial blood pressure after pre-treatment: 90.3 ± 4.6
Male Sprague-Dawley rats [1]; 15 min after i.v., enalaprilat 0.1 mg/kg n=6, icatibant 25 µg/kg n=6, pyrilamine 5 mg/kg n=16, means ± s.e.m., control 351 ± 10, * P < 0.01 vs control
  Basal heart rate after pre-treatment: 362 ± 28
Male Sprague-Dawley rats [1]; enalaprilat 0.1 mg/kg, icatibant 25 µg/kg, pyrilamine 5 mg/kg i.v., 15 min before MK
  effect of pretreatment on hypotensive effect of MK: abated
Male Sprague-Dawley rats [2]
  effect of icatibant on cardiovascular responses to BK and MK: all significantly abated
Male Sprague-Dawley rats [2]; listed as Icatibant
  effect of icatibant on cardiovascular responses to BK and MK: significantly abated all types of responses to the 2 kinins
[3]
  effect of receptor antagonist on MK-induced contraction: profound inhibitory effect
